Source: PMC4492727 (Pharmacology Research & Perspectives, 2015)
Values after ≈ are worked out from the molar mass of the structure shown. Like-named read-outs stand apart in the source and are kept apart here.

How the values were obtained:
MDCK II (MDR1) cells [1] = assay type: in vitro ADME, canine (cells expressing human P-gp); settings: 2.4 μmol/L telmisartan
P-gp = settings: read-out: IC50 as inhibitor of P-gp; ref Weiss et al. [2010]; cited from earlier work
[2] = system: P-gp activity of the murine cell line P388/dx; settings: P388/dx cells; ref Weiss et al. [2010]; cited from earlier work
[3] = system: MDCK II cells transfected with the human MDR1 gene; settings: 5 μmol/L telmisartan, 30 min preincubation; ref Chang et al. ([2006]); cited from earlier work
[4] = cited from earlier work
MDCK II (MDR1) cells [5] = assay: Bidirectional transepithelial transport across MDCK II

CCCc1nc2c(C)cc(-c3nc4ccccc4n3C)cc2n1Cc1ccc(-c2ccccc2C(=O)O)cc1 [telmisartan]
effect on amount of [3H]-digoxin present in cells and filter (MDCK II (MDR1) cells [1]): no difference | increase in concentration of verapamil in cells compared to untreated control (MDCK II (MDR1) cells [1]): ~26% | IC50 (P-gp): 380 nM | P-gp inhibitory effect, calcein AM uptake [2]: inhibited | inhibition of the efflux transport of digoxin [3]: able to inhibit | aqueous solubility ([4]; ref Park et al. [2013]): 0.45 µM (≈ 0.232 µg/mL) | aqueous solubility ([4]; ref Tran et al. [2008]): 0.17 µM (≈ 0.0875 µg/mL) | effect on transepithelial efflux of [3H]-verapamil (MDCK II (MDR1) cells [5]; 2.4 μmol/L telmisartan): minor inhibition | effect on transepithelial transport of [3H]-digoxin (MDCK II (MDR1) cells [5]; 2.4 μmol/L telmisartan): does not affect | effect on verapamil transport in pilot experiments (MDCK II (MDR1) cells [5]; low concentrations of telmisartan, data not shown): no effects
